Source: US20250195521A1 (Revolution Medicines, Inc., priority 2020, published 2025)
“And” between values parts separate entries of the source, which are not always exact repeats. Equal entries are not always repeated. Where two headings read alike, the source gives them in different places.

Legend:
[1] = system: Capan-1 cells (K-Ras G12V); assay: CellTiter-Glo cell viability, Capan-1; format: cell-based, human; conditions: Homo sapiens, CAPAN-1, 120 h, K-Ras G12V, 5-day treatment; read-out: Capan-1 Cell Viability IC50
How it was run: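 Viability is read as luminescence after five days of compound exposure, with plates first equilibrated to room temperature for roughly 30 minutes. Each signal is expressed as a percentage of the mean DMSO control, and curves are fitted by four-parameter logistic regression.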

[2] = biological target: KRAS G12C (Homo sapiens (Human), UniProt P01116+P62937, G12C); assay: Ras-Raf disruption/FRET/MOA assay (BRAF RBD, Cyclophilin A); format: biochemical; conditions: read-out: KRAS G12C FRET IC50
How it was run: (§1)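 TR-FRET readout: anti-His Eu-W1024 (10 nM) and anti-GST allophycocyanin (50 nM) added after 3 h, 25° C compound incubation, then 1.5 h more. Decrease in FRET ratio versus DMSO wells marks Ras:RAF disruption; IC50 reported.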

[3] = system: NCI-H358 (K-Ras G12C); assay: CellTiter-Glo cell viability assay, NCI-H358; format: cell-based, human; conditions: 5-day treatment, read-out: H358 Cell Viability assay data (K-Ras G12C, IC50)
How it was run: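 Viability is measured as ATP-dependent luminescence (CellTiter-Glo) five days into compound treatment. Responses are normalized to vehicle (DMSO) wells and fitted by four-parameter logistic regression.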

[4] = biological target: K-Ras G12C(GMP-PNP) binding to BRAF RBD (Homo sapiens (Human), UniProt P01116+P62937, G12C); assay: Disruption of BRAF RBD interaction with K-Ras (FRET / MOA assay), K-Ras G12C; format: biochemical
Description: Note—The following protocol describes a procedure for monitoring disruption of K-Ras G12C(GMP-PNP) binding to BRAF^RBD by a compound of the invention. This protocol may also be executed substituting other Ras proteins or nucleotides.
The purpose of this biochemical assay was to measure the ability of test compounds to facilitate ternary complex formation between a nucleotide-loaded K-Ras isoform and Cyclophilin A; the resulting ternary complex disrupts binding to a BRAF^RBD construct, inhibiting K-Ras signaling through a RAF effector. Data is reported as IC50 values.
Compound was present in plate wells as a 10-point 3-fold dilution series starting at a final concentration of 30 μM. After incubation at 25° C. for 3 hours, a mixture of Anti-His Eu—W1024 and anti-GST allophycocyanin was then added to assay sample wells at final concentrations of 10 nM and 50 nM, respectively, and the reaction incubated for an additional 1.5 hours. […] Compounds that facilitate disruption of a K-Ras: RAF complex were identified as those eliciting a decrease in the TR-FRET ratio relative to DMSO control wells.

[5] = system: K-Ras G12C (NCI-H358 cells); assay: Potency assay: pERK in NCI-H358 cells; format: cell-based, human; conditions: NCI-H358 cells, 4 hours, read-out: pERK EC50 (H358 KRAS G12C)
How it was run: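 Cells plated the day before were exposed for 4 h at 37° C, 5% CO2 to a 10-point, 3-fold DMSO dilution series (10 mM top stock), in duplicate. Phospho-ERK was read by AlphaLISA SureFire Ultra or by In-Cell Western with DRAQ5 DNA stain, and IC50 came from a 4-parameter sigmoidal fit.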

[6] = biological target: KRAS WT (Homo sapiens (Human), UniProt P01116+P62937); assay: Ras-Raf disruption/FRET/MOA assay (BRAF RBD, Cyclophilin A); format: biochemical; conditions: read-out: KRAS WT FRET data IC50
How it was run: as §1

[7] = biological target: KRAS G12D (Homo sapiens (Human), UniProt P01116+P62937, G12D); assay: as above; format: biochemical; conditions: read-out: KRAS G12D FRET IC50
How it was run: as §1

[8] = biological target: KRAS G13C (Homo sapiens (Human), UniProt P01116+P62937, G13C); assay: as above; format: biochemical; conditions: read-out: KRAS G13C FRET IC50
How it was run: as §1

[9] = biological target: KRAS G13D (Homo sapiens (Human), UniProt P01116+P62937, G13D); assay: as above; format: biochemical; conditions: read-out: KRAS G13D FRET data IC50
How it was run: as §1

[10] = biological target: NRAS G12C (Homo sapiens (Human), UniProt P01111+P62937, G12C); assay: as above; format: biochemical; conditions: read-out: NRAS G12C FRET data IC50
How it was run: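 Ras-GMPPNP (12.5 nM), BRAF RBD (50 nM) and 25 μM Cyclophilin A were incubated with compound for 3 h at 25° C, then detected 1.5 h with anti-His Eu and anti-GST APC; IC50 values follow from the reduced TR-FRET ratio.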

[11] = biological target: KRAS G12S (Homo sapiens (Human), UniProt P01116+P62937, G12S); assay: as above; format: biochemical; conditions: read-out: KRAS G12S FRET IC50
How it was run: as §1

[12] = biological target: KRAS G12V (Homo sapiens (Human), UniProt P01116+P62937, G12V); assay: as above; format: biochemical; conditions: read-out: KRAS G12V FRET IC50
How it was run: as §1

Chain of KRAS G13C (P01116 other isoform, or with tags, fused parts or gaps G13C): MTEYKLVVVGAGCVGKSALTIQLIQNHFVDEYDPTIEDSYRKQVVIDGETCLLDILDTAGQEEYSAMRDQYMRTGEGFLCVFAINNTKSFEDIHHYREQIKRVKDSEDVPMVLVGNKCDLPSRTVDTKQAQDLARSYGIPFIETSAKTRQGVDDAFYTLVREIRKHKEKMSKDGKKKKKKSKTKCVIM
Chain of KRAS G13C (P62937 whole entry): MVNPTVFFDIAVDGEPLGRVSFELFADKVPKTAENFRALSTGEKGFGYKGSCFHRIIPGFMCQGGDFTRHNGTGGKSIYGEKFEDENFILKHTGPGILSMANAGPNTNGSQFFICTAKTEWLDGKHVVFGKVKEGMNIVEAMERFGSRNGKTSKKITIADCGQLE
Chain of KRAS WT (P01116 other isoform, or with tags, fused parts or gaps): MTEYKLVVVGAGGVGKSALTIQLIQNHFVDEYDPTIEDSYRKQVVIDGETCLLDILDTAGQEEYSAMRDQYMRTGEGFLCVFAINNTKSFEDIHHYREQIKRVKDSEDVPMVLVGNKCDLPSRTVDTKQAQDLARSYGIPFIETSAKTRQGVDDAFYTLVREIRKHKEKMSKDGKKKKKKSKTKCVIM
Chain of KRAS WT (P62937 whole entry): as the sequence (P62937 whole entry) above
Chain of KRAS G12S (P01116 other isoform, or with tags, fused parts or gaps G12S): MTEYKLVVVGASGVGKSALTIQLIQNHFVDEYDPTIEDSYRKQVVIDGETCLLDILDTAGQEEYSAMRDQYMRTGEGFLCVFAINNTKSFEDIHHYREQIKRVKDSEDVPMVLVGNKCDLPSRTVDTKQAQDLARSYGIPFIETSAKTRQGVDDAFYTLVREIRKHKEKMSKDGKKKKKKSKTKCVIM
Chain of KRAS G12S (P62937 whole entry): as the sequence (P62937 whole entry) above
Chain of KRAS G12C (P01116-2 other isoform, or with tags, fused parts or gaps G12C): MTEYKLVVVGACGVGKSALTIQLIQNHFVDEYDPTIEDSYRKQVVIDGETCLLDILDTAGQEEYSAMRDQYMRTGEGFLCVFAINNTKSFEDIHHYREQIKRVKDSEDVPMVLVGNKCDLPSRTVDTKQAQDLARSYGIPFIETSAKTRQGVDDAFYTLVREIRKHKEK
Chain of KRAS G12C (P62937 whole entry): as the sequence (P62937 whole entry) above
Chain of KRAS G13D (P01116 other isoform, or with tags, fused parts or gaps G13D): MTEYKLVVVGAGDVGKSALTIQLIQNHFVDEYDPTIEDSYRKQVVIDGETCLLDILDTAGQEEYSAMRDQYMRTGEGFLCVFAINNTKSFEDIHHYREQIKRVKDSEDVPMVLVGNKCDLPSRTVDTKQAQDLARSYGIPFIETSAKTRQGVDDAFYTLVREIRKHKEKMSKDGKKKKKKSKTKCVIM
Chain of KRAS G13D (P62937 whole entry): as the sequence (P62937 whole entry) above
Chain of KRAS G12D (P01116 other isoform, or with tags, fused parts or gaps G12D): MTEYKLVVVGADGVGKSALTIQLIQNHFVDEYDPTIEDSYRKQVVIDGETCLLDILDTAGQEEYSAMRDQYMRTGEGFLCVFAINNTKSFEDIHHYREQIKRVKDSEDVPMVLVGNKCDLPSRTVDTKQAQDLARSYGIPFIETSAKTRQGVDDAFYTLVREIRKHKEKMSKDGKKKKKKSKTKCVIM
Chain of KRAS G12D (P62937 whole entry): as the sequence (P62937 whole entry) above
Chain of NRAS G12C (P01111 whole entry G12C): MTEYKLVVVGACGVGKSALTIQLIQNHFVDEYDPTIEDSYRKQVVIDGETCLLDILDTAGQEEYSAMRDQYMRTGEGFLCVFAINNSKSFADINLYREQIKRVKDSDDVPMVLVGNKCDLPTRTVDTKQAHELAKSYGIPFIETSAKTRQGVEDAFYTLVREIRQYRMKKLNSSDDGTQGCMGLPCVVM
Chain of NRAS G12C (P62937 whole entry): as the sequence (P62937 whole entry) above
Chain of K-Ras G12C(GMP-PNP) binding to BRAF RBD (P01116 other isoform, or with tags, fused parts or gaps G12C): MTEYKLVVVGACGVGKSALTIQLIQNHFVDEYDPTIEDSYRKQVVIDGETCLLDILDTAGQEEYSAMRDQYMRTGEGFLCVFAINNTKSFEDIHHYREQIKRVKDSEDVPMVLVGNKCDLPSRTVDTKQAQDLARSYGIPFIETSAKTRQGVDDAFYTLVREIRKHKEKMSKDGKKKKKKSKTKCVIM
Chain of K-Ras G12C(GMP-PNP) binding to BRAF RBD (P62937 whole entry): as the sequence (P62937 whole entry) above
Chain of KRAS G12V (P01116 other isoform, or with tags, fused parts or gaps G12V): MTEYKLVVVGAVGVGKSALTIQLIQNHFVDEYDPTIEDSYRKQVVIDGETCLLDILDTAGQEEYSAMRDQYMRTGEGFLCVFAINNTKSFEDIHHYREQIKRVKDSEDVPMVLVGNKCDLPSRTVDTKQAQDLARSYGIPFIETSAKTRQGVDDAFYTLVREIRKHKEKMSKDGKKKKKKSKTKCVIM
Chain of KRAS G12V (P62937 whole entry): as the sequence (P62937 whole entry) above

Row | IC50 [2] | IC50 ([3]; Homo sapiens, NCI-H358, 120 h) | IC50 ([4]; read-out: KRAS G12C FRET IC50) | EC50 ([5]; Homo sapiens) | IC50 [6] | IC50 [7] | IC50 [8] | IC50 [9] | IC50 [10] | IC50 [11] | IC50 [12] | Structure (SMILES) | IC50 [1] | IC50 ([4]; KRAS G12C FRET IC50) | IC50 [3] | EC50 [5]
1 | 10 to 100 nM | < 10 nM | 10 to 100 nM | < 5000 nM |  |  |  |  |  |  |  | CCn1c(-c2cccnc2[C@H](C)OC)c2c3cc(ccc31)-c1cc(O)cc(c1)C[C@H](NC(=O)[C@H](C(C)C)N(C)C(=O)[C@@H]1CNC[C@@H]1C)C(=O)N1CCC[C@H](N1)C(=O)OCC(C)(C)C2 [Compound A128] | > 10000 nM |  |  | 
2 | 10 to 100 nM | 100 to 1000 nM | 10 to 100 nM |  | 10 to 100 nM | 10 to 100 nM | 10 to 100 nM | 10 to 100 nM |  |  |  | CCn1c(-c2cccnc2[C@H](C)OC)c2c3cc(ccc31)-c1cc(O)cc(c1)C[C@H](NC(=O)[C@H](C(C)C)N(C)C(=O)C1(CN)CC1)C(=O)N1CCC[C@H](N1)C(=O)OCC(C)(C)C2 [Compound A139] |  |  |  | 
3 | 1000 to 10000 nM |  | 100 to 1000 nM and 1000 to 10000 nM |  | > 10000 nM | > 10000 nM | 1000 to 10000 nM | > 10000 nM | 1000 to 10000 nM | > 10000 nM |  | CCn1c(-c2cccnc2[C@H](C)OC)c2c3cc(ccc31)-c1csc(n1)C[C@H](NC(=O)[C@H](C(C)C)N1CCCC1=O)C(=O)N1CCC[C@H](N1)C(=O)OCC(C)(C)C2 [Compound A212] | > 10000 nM |  |  | 
4 | 100 to 1000 nM |  | 100 to 1000 nM and > 10000 nM |  | 100 to 1000 nM | 1000 to 10000 nM | 10 to 100 nM | 100 to 1000 nM | 100 to 1000 nM | 100 to 1000 nM | 100 to 1000 nM | CCn1c(-c2cnccc2COC)c2c3cc(ccc31)-c1cc(O)cc(c1)C[C@H](NC(=O)[C@H](C(C)C)N(C)C(=O)[C@H]1CN(C(C)=O)C[C@H]1C(F)(F)F)C(=O)N1CCC[C@H](N1)C(=O)OCC(C)(C)C2 [Compound A215] | > 10000 nM |  |  | 
5 | 10 to 100 nM | > 10000 nM | 100 to 1000 nM and > 10000 nM |  | 10 to 100 nM | 10 to 100 nM | 10 to 100 nM | 10 to 100 nM | 10 to 100 nM | 10 to 100 nM | 10 to 100 nM | CCn1c(-c2cccnc2[C@H](C)OC)c2c3cc(ccc31)-c1cc(O)cc(c1)C[C@H](NC(=O)[C@H](C(C)C)N(C)C(=O)[C@@H]1C[C@@H]1C)C(=O)N1CCC[C@H](N1)C(=O)OCC(C)(C)C2 [Compound A223] | 100 to 1000 nM |  |  | 
6 | 100 to 1000 nM | 10 to 100 nM | 100 to 1000 nM |  | 1000 to 10000 nM | 1000 to 10000 nM | 100 to 1000 nM | 1000 to 10000 nM | 100 to 1000 nM | 100 to 1000 nM | 100 to 1000 nM | CCn1c(-c2cccnc2[C@H](C)OC)c2c3cc(ccc31)-c1cc(O)cc(c1)C[C@H](NC(=O)[C@H](C(C)C)N(C)C(=O)[C@H]1CCN(C(C)=O)C1)C(=O)N1CCC[C@H](N1)C(=O)NCC(C)(C)C2 [Compound A431] |  |  |  | 

Row | Structure (SMILES) | IC50 [2] | IC50 ([3]; Homo sapiens, NCI-H358, 120 h) | IC50 ([4]; read-out: KRAS G12C FRET IC50) | EC50 ([5]; Homo sapiens) | IC50 [6] | IC50 [7] | IC50 [8] | IC50 [9] | IC50 [10] | IC50 [11] | IC50 [12] | IC50 [1] | IC50 ([4]; KRAS G12C FRET IC50) | IC50 [3] | EC50 [5]
7 | CCn1c(-c2cccnc2[C@H](C)OC)c2c3cc(ccc31)-c1csc(n1)C[C@H](NC(=O)[C@H](C(C)C)N1CCC3(CCN(S(C)(=O)=O)C3)C1=O)C(=O)N1CCC[C@H](N1)C(=O)OCC(C)(C)C2 (stereo partly shown) [Compound A220] | 1000 to 10000 nM | > 10000 nM |  |  | 1000 to 10000 nM | > 10000 nM | 1000 to 10000 nM | > 10000 nM | 1000 to 10000 nM | 1000 to 10000 nM | 1000 to 10000 nM |  | 100 to 1000 nM and 1000 to 10000 nM |  | 
8 | CCn1c(-c2cccnc2[C@H](C)OC)c2c3cc(ccc31)C1=C[C@@H](O)CN(C1)C[C@H](NC(=O)[C@H]1[C@H](C)[C@@H]1C)C(=O)N1CCC[C@H](N1)C(=O)OCC(C)(C)C2 [Compound A424, (1R,2R,3S)—N-((2^3R,6^3S,4S)-1^1-ethyl-23-hydroxy-1^2-(2-((S)-1-methoxyethyl)pyridin-3-yl)-10,10-dimethyl-5,7-dioxo-2^1,2^2,2^3,2^6,6^1,6^2,6^3,6^4,6^5,6^6-decahydro-1^1H-8-oxa-1 (5,3)-indola-6 (1,3)-pyridazina-2 (5,1)-pyridinacycloundecaphane-4-yl)-2,3-dimethylcyclopropane-1-carboxamide] | 10 to 100 nM |  | 100 to 1000 nM |  |  | 100 to 1000 nM | 10 to 100 nM |  |  | 10 to 100 nM | 10 to 100 nM |  |  | 100 to 1000 nM | < 5000 nM
